Assay results published in patent publication US9226914B2, “Methods for promoting neuronal development and/or health” (Mead Johnson Nutrition Company, priority 2013, dated 2016).

Legend:
[1] = test system: frontal cortex neuronal networks (cortical network activity in vitro); assay: Acute effects on cortical neuronal network activity on MEA neurochips (spike train analysis); type: cell-based, mice
Description: The experiments were performed according to the SOPs, “SOP Preparation Frontal Cortex Mouse—Serum (Rev. 07 2012 Mar. 6 eng)”, “SOP Solutions for Neuronal Cell Culture (Rev. 04 2009 Nov. 18 eng)”, “SOP Cleaning and Substrate Preparations of MEAs (Rev. 03 2009 Apr. 26 eng)”, “SOP Feeding neuronal cell culture”, “SOP Cell culture preparation MEAs”, “SOP Plexon Recording” and “SOP Plexon Data Analysis”.
The microelectrode array neurochips (“MEA neurochips”) were provided by the Center for Network Neuroscience (CNNS) at the University of North Texas. These 5×5 cm^2 glass chips have a dual recording matrix with 32 passive electrodes per matrix and indium tin oxide conductors. The hydrophobic insulation material surface was activated by a brief butane flame pulse through a stainless steel mask. Thus, cell attachment on a confined region, a 5 mm diameter centered on the electrode array, is ensured. The activated face regions were coated with 25 μg/mL poly-D-lysine (30-70 kD) and incubated […] in 16 μg/mL laminin for 3 hours right before the preparation.
Frontal cortex tissue was harvested from embryonic day 15 chr:NMRI mice. Mice were sacrificed by cervical dislocation according to the German Animal Protection Act Section 4. Cultures on MEAs were incubated at 37 deg. C. in a 10% CO2 atmosphere until ready for use, which usually is four weeks to three months after seeding. Culture media were replenished two times a week with DMEM containing 10% heat inactivated horse serum. The developing co-cultures were treated with the mitosis inhibitor 5-fluoro-2′-deoxyuridine (25 μMolar) and uridine (63 μMolar) for 48 hours on day 5 after seeding to prevent further glial proliferation.
After establishing a stable activity pattern after 4 weeks, the neuronal networks on MEA chips were employed for substance testing. For this example, cultures between 25 and 38 days in vitro were used. For extracellular recording, MEA neurochips were placed into sterilized constant-bath recording chambers and maintained at 37 deg. C. Recordings were made in DMEM including 10% heat inactivated horse serum. The pH was maintained at 7.4 with a continuous stream of filtered, humidified airflow with 10% CO2. Sets of preamplifiers were positioned to either side of the recording chamber. Recording was performed with the multichannel acquisition processor system, a computer-controlled 64-channel amplifier system (Plexon, Inc., Dallas, Tex., USA) providing programmable amplification, filtering, switching, and digital signal processing of microelectrode signals. The total system gain used was 10K with a simultaneous 40 kHz sampling rate. The signals routinely recorded by these neurochips are located in a range of 15-1800 microV.
The multichannel signal acquisition system delivered single neuron spike data. Spike identification and separation were accomplished with a template-matching algorithm in real time. This allows for the extracellular recording from action potentials from a maximum of 256 neurons simultaneously.
The action potentials, or spikes, were recorded in spike trains and are clustered in so-called bursts. Bursts were quantitatively described via direct spike train analysis using the program NeuroEXplorer (Plexon Inc., Dallas, Tex., USA) and in house programs. Bursts were defined by the beginning and the end of short spike invents. Maximum spike intervals defining the start of a burst were 40 ms and maximum intervals to end a burst from 200 ms.
All compounds were recorded with a fixed DMSO concentration of 0.1% throughout the experiments. Due to the fact that alpha-lipoic acid was investigated at concentrations between 100 μM and 5 mM, the solvent concentration reached 0.7%.
The high content analysis of the network activity patterns provides a multiparametric description characterized in four activity categories: general activity, burst structure, synchronicity and oscillatory behavior. […]

[2] = Precipitation on dilution of stock into experiment bath solution; type: physicochemical; conditions: 1 M stock in 100% DMSO; bath 1, 3 and 5 mM
Description: All compounds were recorded with a fixed DMSO concentration of 0.1% throughout the experiments. Due to the fact that alpha-lipoic acid was investigated at concentrations between 100 μM and 5 mM, the solvent concentration reached 0.7%. […] Working solutions of all compounds were freshly prepared for each experiment day and between 0.9 and 10 μL were applied to a 1 mL experiment bath solution.

[3] = test system: neuronal activity (spike rate and burst rate); assay: Chronic effects of hBDNF on neuronal activity development in the MEA system; type: cell-based; conditions: 20 ng/ml, FIG. 15
Source text: For neurotrophic factors such as hBDNF, NeuroProof tested the chronic effects in the MEA system (See FIG. 15).

Q: Which results are given for O=C(O)CCCCC1CCSS1 (stereo not drawn) [ALA, alpha-lipoic acid]?
A: activity reached (spike rate fit) ([1]; 100 μM alpha-lipoic acid, FIG. 6): 91.5 % of control (0.1% DMSO) activity; activity reached (spike rate fit) ([1]; 1 mM alpha-lipoic acid, FIG. 6): 83.6 % of control (0.1% DMSO) activity; activity reached (spike rate fit) ([1]; 5 mM alpha-lipoic acid, FIG. 6): 43.9 % of control (0.1% DMSO) activity; concentration at which general activity is affected (spike rate fit) ([1]; FIG. 6): above 100 μM; EC50 ([1]; Mus musculus, concentration of ALA, FIGS. 9 and 10, read-out: EC50 for the decline of activity): 5.03 mM; Hill coefficient (nH) of the decline of activity ([1]; concentrations above 100 μM ALA, higher value = steeper slope): 1.66; concentration at which general activity is reduced ([1]; experimental concentrations): ≥ 1 mM; precipitation during dilution [2]: precipitation of alpha-lipoic acid occurred at the three highest concentrations

Q: With CC/C=C\C/C=C\C/C=C\C/C=C\C/C=C\C/C=C\CCC(=O)O [DHA, docosahexaenoic acid] as the compound, how does the “activity (spike rate fit), activity decline reached” value ([1]; 100 μM DHA, highest tested concentration, FIG. 5) read?
A: The value was 63.6 % of native activity.

Q: And the “concentration at which spike rates and burst rates are reduced” value ([1]; increasing effects at higher concentrations)?
A: Its value is ≥ 100 pM.

Q: Which results are given for “hBDNF: Human recombinant brain derived neurotrophic factor, PeproTech #450-02”?
A: acceleration of neuronal activity development ([3]; chronic): approximately one week; general activity (spike rate, burst rate), chronic treatment ([3]; versus vehicle): increases the general activity at every recorded time point; effect on general activity ([1]; above 500 pg/mL, tested 10 pg/mL to 50 μg/mL): only shows slight effects on the general activity which is numerically increased; EC50 on spike rate ([1]; acute application): 5.28 ng/mL
